What was measured:
[1] = tested on: kidney disease model rats; test: Renal function indicatory value in kidney disease model rats; assay type: in vivo, Sprague-Dawley female rats; details: 20 mg/kg/day with drinking water, six weeks; for Creatinine clearance: 24 hours urine, control 0.22; for Creatinine / Blood urea nitrogen: serum; for Creatinine: control 2.0; for Blood urea nitrogen: control 100
Procedure: (§1) The kidney disease model rats were prepared by a ligature of branches of renal artery in accordance with a conventional method. Namely, the left hilum renalis of Sprague-Dawley female rats was exposed under anesthesia, and one of four secondary branches of the renal artery was left unligated, while the remaining three branches were ligated, respectively. After a week, the hilum renalis (artery, vein, and ureter) of the right kidney were further ligated to thereby prepare rats whose renal function was lowered to approximately 1/8 of the normal function. Each group consisted of eight rats. The drugs to be tested (20 mg/kg) were administered to each administering group, and only water was administered to a control group. Two days after the administration, the systolic blood pressure was measured by the tail cuff method using a blood pressure measuring apparatus (UR5000; Ueda).
The rats in each group were allowed to freely take up food. […] To the rats in the control group, only water was administered every day. After six weeks, 0.2 ml of blood was collected from the carotid artery of the rats under anesthesia, and centrifuged to obtain serum. Using 25 μl of the serum, the serum creatinine (Scr) was measured by a creatinine analytical instrument (Beckman). Using 10 μl of the serum, the blood urea nitrogen (BUN) was measured by a BUN analytical instrument (Beckman). The creatinine clearance was evaluated as follows:
After the serum creatinine measurement, rats were placed in urinary metabolic cages for 24 hours to collect urine. A urinary creatine concentration (Ucr) was measured by a creatinine analytical instrument, and a total volume of urination (Uvol) was also measured. The creatinine clearance (CCr) was calculated by the following formula: [formula]

[2] = tested on: kidney disease model rats; test: Action to lower blood pressure in kidney disease model rats (tail cuff); assay type: in vivo, Sprague-Dawley female rats; details: for Blood Pressure: systolic, average of 8 rats, 20 mg/kg with drinking water, two days after administration, control 210
Procedure: as §1, with “The compounds of the present invention and the reference substance were administered with drinking water to kidney disease model rats, and the action of lowering the blood pressure was observed. The kidney” for “The kidney”

[3] = biological target: T1, angiotensin II receptor subtype 1 (AT1) (Oryctolagus cuniculus, UniProt P34976); test: Binding to receptors: angiotensin II receptor subtype 1 (AT1); design: species or system rabbits (adrenal glands); details: rabbit adrenal glands, tracer 3H-angiotensin II
T1 construct: receptor : from adrenal glands in rabbits; from tissue; host or cells: rabbit adrenal glands
T1 sequence (P34976 1-359): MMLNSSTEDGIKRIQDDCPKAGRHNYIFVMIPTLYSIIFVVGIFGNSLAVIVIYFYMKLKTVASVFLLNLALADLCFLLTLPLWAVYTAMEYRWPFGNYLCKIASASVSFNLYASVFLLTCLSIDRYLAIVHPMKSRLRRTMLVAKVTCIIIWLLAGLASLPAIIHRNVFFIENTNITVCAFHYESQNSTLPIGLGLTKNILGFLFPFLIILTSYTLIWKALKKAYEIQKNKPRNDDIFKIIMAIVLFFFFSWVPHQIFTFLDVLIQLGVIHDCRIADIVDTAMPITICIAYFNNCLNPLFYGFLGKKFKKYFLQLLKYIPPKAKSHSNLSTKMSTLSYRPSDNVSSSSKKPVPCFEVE
Procedure: (§2) In this Example, the affinity to the angiotensin II receptor subtype 1 or subtype 2 was evaluated by a binding assay in accordance with the method described in Biochem. Pharmacol., 33, 4057-4062 (1984).
(§3) Specifically, the measurement of the total binding in the presence of each drug was performed as follows:
(§4) A mixture (final volume=0.25 ml) of a drug in a given concentration (the drug was dissolved in DMSO, and diluted to a double volume with a buffer attached to a drug discovery system to prepare a sample for the assay; 0.025 ml), a tracer (0.025 ml), and receptors (0.2 ml) was incubated [in the case of the angiotensin II receptor subtype 1 (AT1), at room temperature for 3 hours, and in the case of the subtype 2 (AT2), at 37° C. for 1 hour]. Then, the reaction mixture was filtered with suction (GF/C filter was used in AT1, and GF/B filter was used in AT2). The filter papers after filtration with suction (the tracer bound to the receptors) were counted by a γ-well counter (ARC-500, Aloka). The non-specific bindings were measured by repeating the above method, except that a large excess amount of a displacer was added. The specific binding of the drug in the given concentration was calculated by subtracting the non-specific binding from the total binding, respectively.
receptor : from adrenal glands in rabbits
tracer : ^3 Hangiotensin II

ICR female mice = test: Acute toxicity, single oral dose in mice; details: mouse, in vivo
Procedure: The aromatic compounds of the formula (I) according to the present invention were orally administered to mice at the dose of 500 mg/kg, but no fatalities were observed over a period of one week.
Five-week-old ICR female mice (5 mice per group) were bred for acclimation for a week. Then, the compounds of the present invention were dissolved in water, and orally administered to the mice in a single dosage (500 mg/kg).

[4] = biological target: T2, angiotensin II receptor subtype 2 (AT2) (Bos taurus, UniProt G5E6F7); test: Binding to receptors: angiotensin II receptor subtype 2 (AT2); details: bovine cerebellar cortex, tracer 125I-Tyr4-angiotensin II
T2 construct: receptor : from cerebellar cortex in bovine; from tissue; host or cells: bovine cerebellar cortex
T2 sequence (G5E6F7 1-362): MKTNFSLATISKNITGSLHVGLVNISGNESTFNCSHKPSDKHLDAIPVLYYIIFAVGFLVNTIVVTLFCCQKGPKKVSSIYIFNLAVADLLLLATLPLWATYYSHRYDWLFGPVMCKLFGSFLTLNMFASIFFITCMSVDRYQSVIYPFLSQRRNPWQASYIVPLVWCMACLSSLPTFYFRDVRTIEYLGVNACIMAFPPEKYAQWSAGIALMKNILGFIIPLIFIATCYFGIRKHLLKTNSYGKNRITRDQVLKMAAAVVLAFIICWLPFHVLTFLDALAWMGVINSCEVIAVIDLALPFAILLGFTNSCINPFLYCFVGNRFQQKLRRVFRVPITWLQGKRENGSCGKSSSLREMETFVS
Procedure: as §2, §3, §4
In AT1 and AT2, the percentages found to inhibit the bindings of radioactive ligands (tracer) to receptors by the drugs to be tested (IC50 value of concentration to show 50% inhibition, or binding inhibition % in 100 μM) were measured, using the drugs to be tested and control drugs in the given concentration.
receptor : from cerebellar cortex in bovine
tracer : ^125 ITyr^4angiotensin II
control drug : angiotensin II (human)
(displacer) : angiotensin II (human)

[5] = tested on: kidney disease model rats; test: Survival time of kidney diseased animals; assay type: in vivo, Sprague-Dawley female rats; details: 20 mg/kg/day with drinking water, observation period eight weeks (upper limit); control 5.0
Procedure: as §1, with “The compounds of the present invention and the reference substance were administered with drinking water to kidney disease model rats, and the action of lowering the blood pressure was observed. The kidney” for “The kidney”
The kidney disease model rats were prepared as in Example 54. Twenty-two groups (8 rats per group) were prepared in a manner such that there was no major difference between the groups in the serum creatinine value and the blood urea nitrogen value indicating renal function. The rats in each group were allowed to freely take up food. […] To the rats in the control group, only water was administered every day. If kidney diseases are aggravated, the rat will die of uremia. Thus, the survival time was observed as a comprehensive indication of the improvement of the effect on the kidney diseases. The observation period was eight weeks. Thus if all rats survived, the average survival time is eight weeks, and is an upper limit.

Row | SMILES | Creatinine clearance [1] [mL/min] | Creatinine [1] [mg/dL] | Blood urea nitrogen [1] [mg/dL] | Blood Pressure [2] [mmHg] | inhibition at 100 µM [3] [%] | Number of deaths/number of survivals (ICR female mice) | inhibition at 100 µM [4] [%] | Average survival time [5] [weeks] | action of lowering the blood pressure ([2]; result in words, in comparison with the control group)
1 | CCCCC(=O)N(Cc1ccc(C(=O)OCC(N)C(=O)OCC)cc1)c1cc(C(=O)N2CCOCC2)ccc1N(C)C (stereo not drawn) [Compound No. 4, 3-N-[[[[4-(2'-amino-2'-ethoxycarbonyl)ethoxycarbonyl]phenyl]methyl]valeramido]-4-dimethyl aminobenzoic acid morpholide] | 0.37 | 1.4 | 72 | 204 | 11 | 0/5 | 0 | 6.9 | 
2 | CCCCC(=O)N(Cc1ccc(C(=O)OC2CNC(C(=O)OCC)C2)cc1)c1cc(C(=O)N2CCOCC2)ccc1N(C)C (stereo not drawn) [Compound No. 5, 4-dimethylamino-3-N-[[[[4-(2'-ethoxycarbonylpyrrolidin-4'-yloxy)carbonyl]phenyl]methyl]valeramido]benzoic acid morpholide] | 0.30 | 1.6 | 82 | 200 | 11 | 0/5 | 0 | 6.9 | 
3 | CCCCC(=O)N(Cc1ccc(C(=O)O)cc1)c1cc(C(=O)N2CCN(C)CC2)ccc1N(C)C [Compound No. 10, 3-[[(4-carboxyohenyl)methyl]valeramido]-4-dimethylaminobenzoic acid 4'-methylpiperazide] | 0.32 | 1.6 | 81 | 206 | 13 | 0/5 | 0 | 6.9 | 
4 | CCCCCCCC(=O)N(Cc1ccc(C(=O)O)cc1)c1cc(C(=O)N2CCN(C)CC2)ccc1N(C)C [Compound No. 14, 3-[[(4-carboxyphenyl)methyl]n-octanamido]-4-dimethylaminobenzoic acid 4'-methylpiperazide] | 0.27 | 1.7 | 86 | 205 | 0 | 0/5 | 0 | 6.3 | 
5 | CCCCC(=O)N(Cc1ccc(C(=O)OCC)cc1)c1cc(C(=O)N2CCN(C)CC2)ccc1C(C)C [Compound No. 16, 3-[[(4-ethoxycarbonylphenyl)methyl]valeramido]-4-i-propylbenzoic acid 4'-methylpiperazide] | 0.33 | 1.5 | 78 | 202 | 0 | 0/5 | 0 | 6.9 | 
6 | CCCCC(=O)N(Cc1ccc(C(=O)O)cc1)c1cc(C(=O)N(CC)CCN(CC)CC)ccc1C(C)C [Compound No. 17] | 0.33 | 1.5 | 78 | 201 | 4 | 0/5 | 23 | 6.9 | 
7 | CCCCc1nc(Cl)c(CO)n1Cc1ccc(-c2ccccc2-c2nn[nH]n2)cc1 [DuP753, reference compound] | 0.32 | 1.6 | 80 | 130 |  |  |  | 6.9 | clearly exhibited the action of lowering the blood pressure

— patent US5863913A, “Aromatic compound and pharmaceutical composition” (Kureha Chemical Industry Co., Ltd., priority 1996, dated 1999)
